Results taken from ChEMBL document CHEMBL1201862, “PubChem BioAssay data set” (2004).
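Assay format: 96-well plates, 48-hour exposure. GI50 = concentration required for 50% inhibition of growth.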 Activity calls are given as the source filed them. No stated cut-off is given here; in the data, active = GI50 up to about 1.1 µM and inactive = higher.

Columns and labels:
Assay in all cases: growth of human tumour cells (NCI), 48 h
[1] = tested on: 786-0
[2] = tested on: A498
[3] = tested on: A549
[4] = tested on: ACHN
[5] = tested on: BT-549
[6] = tested on: CAKI-1
[7] = tested on: CCRF-CEM
[8] = tested on: COLO 205
[9] = tested on: DU-145
[10] = tested on: EKVX
[11] = tested on: HCC 2998
[12] = tested on: HCT-116
[13] = tested on: HCT-15
[14] = tested on: HL-60
[15] = tested on: HOP-62
[16] = tested on: HOP-92
[17] = tested on: HT-29
[18] = tested on: IGROV-1
[19] = tested on: K562
[20] = tested on: KM12
[21] = tested on: LOX IMVI
[22] = tested on: M14
[23] = tested on: MCF7
[24] = tested on: MDA-MB-231
[25] = tested on: MDA-MB-435
[26] = tested on: MDA-N
[27] = tested on: MOLT-4
[28] = tested on: NCI-H226
[29] = tested on: NCI-H23
[30] = tested on: NCI-H460
[31] = tested on: NCI/ADR-RES
[32] = tested on: OVCAR-3
[33] = tested on: OVCAR-4
[34] = tested on: OVCAR-5
[35] = tested on: OVCAR-8
[36] = tested on: PC-3
[37] = tested on: RPMI-8226
[38] = tested on: RXF 393
[39] = tested on: SF-295
[40] = tested on: SK-MEL-28
[41] = tested on: SK-MEL-2
[42] = tested on: SK-MEL-5
[43] = tested on: SK-OV-3
[44] = tested on: SN12C
[45] = tested on: SNB-19
[46] = tested on: SW-620
[47] = tested on: T47D
[48] = tested on: TK-10
[49] = tested on: U-251
[50] = tested on: UACC-257
[51] = tested on: UACC-62
[52] = tested on: UO-31
[53] = tested on: SF-268
[54] = tested on: SNB-75

## CCOC(=O)N(CC)c1c(C(F)(F)F)cc(-c2ccccc2)[nH]c1=O
[1]
  GI50: 64.3 µM (inactive)
[2]
  GI50: 50.7 µM (inactive)
[3]
  GI50: 45.3 µM (inactive)
[4]
  GI50: 58.6 µM (inactive)
[5]
  GI50: 75 µM (inactive)
[6]
  GI50: > 100 µM (inactive)
[7]
  GI50: 16.4 µM (inactive)
[8]
  GI50: 32.4 µM (inactive)
[9]
  GI50: 72.3 µM (inactive)
[10]
  GI50: 33.5 µM (inactive)
[11]
  GI50: 54.2 µM (inactive)
[12]
  GI50: 48.5 µM (inactive)
[13]
  GI50: 40.6 µM
[14]
  GI50: 13.6 µM (inactive)
[15]
  GI50: 73.5 µM (inactive)
[16]
  GI50: 50.7 µM (inactive)
[17]
  GI50: 61.1 µM (inactive)
[18]
  GI50: 47.2 µM (inactive)
[19]
  GI50: 23.1 µM (inactive)
[20]
  GI50: 36.1 µM (inactive)
[21]
  GI50: 68.4 µM (inactive)
[22]
  GI50: 66.4 µM (inactive)
[23]
  GI50: 44 µM (inactive)
[24]
  GI50: > 100 µM (inactive)
[25]
  GI50: 22.8 µM (inactive)
[26]
  GI50: 23.3 µM (inactive)
[27]
  GI50: 25.8 µM (inactive)
[28]
  GI50: > 100 µM (inactive)
[29]
  GI50: 52.2 µM (inactive)
[30]
  GI50: 45.1 µM (inactive)
[31]
  GI50: 24.7 µM (inactive)
[32]
  GI50: 37.1 µM (inactive)
[33]
  GI50: 30.8 µM (inactive)
[34]
  GI50: > 100 µM (inactive)
[35]
  GI50: 49.4 µM (inactive)
[36]
  GI50: 46.5 µM (inactive)
[37]
  GI50: 14.5 µM (inactive)
[38]
  GI50: 28.2 µM (inactive)
[39]
  GI50: 33.4 µM (inactive)
[40]
  GI50: 70.6 µM (inactive)
[41]
  GI50: 72.6 µM (inactive)
[42]
  GI50: 41.7 µM (inactive)
[43]
  GI50: 92 µM (inactive)
[44]
  GI50: 48.6 µM (inactive)
[45]
  GI50: > 100 µM (inactive)
[46]
  GI50: 54.7 µM (inactive)
[47]
  GI50: 32.7 µM (inactive)
[48]
  GI50: 97.9 µM (inactive)
[49]
  GI50: 55.2 µM (inactive)
[50]
  GI50: 48.3 µM (inactive)
[51]
  GI50: 66.2 µM (inactive)
[52]
  GI50: 56.1 µM (inactive)

## COC(=O)C(N)CCCC(N)C(=O)NC(C)C(=O)NC(CCC(=O)NCCCNc1ccc([N+](=O)[O-])c2[nH]c3ccccc3c(=O)c12)C(N)=O (centres undefined)
[1]
  GI50: 4.53 µM (inactive)
[2]
  GI50: 15.1 µM (inactive)
[3]
  GI50: 3.13 µM (inactive)
[4]
  GI50: 3.68 µM (inactive)
[5]
  GI50: 12.7 µM (inactive)
[6]
  GI50: 6.64 µM (inactive)
[7]
  GI50: 3.9 µM (inactive)
[8]
  GI50: 3.85 µM (inactive)
[9]
  GI50: 6.56 µM (inactive)
[10]
  GI50: 7.78 µM (inactive)
[11]
  GI50: 6.82 µM (inactive)
[12]
  GI50: 2.33 µM (inactive)
[13]
  GI50: 3.67 µM
[15]
  GI50: 7.26 µM (inactive)
[16]
  GI50: 11.4 µM (inactive)
[19]
  GI50: 6.67 µM (inactive)
[20]
  GI50: 4.91 µM (inactive)
[21]
  GI50: 3.24 µM (inactive)
[22]
  GI50: 5.4 µM (inactive)
[24]
  GI50: 10.1 µM (inactive)
[25]
  GI50: 5.01 µM (inactive)
[28]
  GI50: 9.55 µM (inactive)
[29]
  GI50: 5.68 µM (inactive)
[30]
  GI50: 3.59 µM (inactive)
[31]
  GI50: 6.07 µM (inactive)
[32]
  GI50: 10.8 µM (inactive)
[33]
  GI50: 6.15 µM (inactive)
[34]
  GI50: 10.4 µM (inactive)
[35]
  GI50: 3.37 µM (inactive)
[36]
  GI50: 5.56 µM (inactive)
[37]
  GI50: 3.19 µM (inactive)
[38]
  GI50: 9.55 µM (inactive)
[53]
  GI50: 3.25 µM (inactive)
[39]
  GI50: 6.24 µM (inactive)
[40]
  GI50: 10.2 µM (inactive)
[41]
  GI50: 16.8 µM (inactive)
[42]
  GI50: 11.7 µM (inactive)
[43]
  GI50: 11.4 µM (inactive)
[45]
  GI50: 4 µM (inactive)
[54]
  GI50: 9.89 µM (inactive)
[46]
  GI50: 3.7 µM (inactive)
[47]
  GI50: 11.6 µM (inactive)
[48]
  GI50: 10 µM (inactive)
[49]
  GI50: 4.66 µM (inactive)
[50]
  GI50: 8.79 µM (inactive)
[51]
  GI50: 2.42 µM (inactive)
[52]
  GI50: 3.49 µM (inactive)
